{"source": "ChEMBL document CHEMBL2390917", "about": "“Synthesis and biological evaluation of 2-(5-methyl-4-phenyl-2-oxopyrrolidin-1-yl)-acetamide stereoisomers as novel positive allosteric modulators of sigma-1 receptor” (Bioorg Med Chem, 2013)", "key": {"[1]": {"test_system": "Mus musculus", "assay": "Toxicity in ICR mouse assessed as effect on locomotor activity measured moved distance per 4 mins at 1 mg/kg, ip after 180 mins by open field test (reference value: 436 125 cm)", "format": "organism-based", "design": "dose 1 mg/kg, route intraperitoneal", "settings": "in vivo"}, "[2]": {"target": "C-X-C chemokine receptor type 2 (Homo sapiens) (UniProt P25025)", "assay": "Binding affinity to human CXCR2 at 10 uM by radioligand displacement assay relative to control"}, "[3]": {"target": "Somatostatin receptor type 1 (Homo sapiens) (UniProt P30872)", "assay": "Binding affinity to Somatostatin receptor type 1 (unknown origin) at 10 uM by radioligand displacement assay relative to control"}, "[4]": {"test_system": "Mus musculus", "assay": "Toxicity in ICR mouse assessed as effect on locomotor activity measured moved distance per 4 mins at 100 mg/kg, ip after 120 mins by open field test (reference value: 578 126 cm)", "format": "organism-based", "design": "dose 100 mg/kg, route intraperitoneal", "settings": "in vivo"}, "[5]": {"target": "Muscarinic acetylcholine receptor M4 (Homo sapiens) (UniProt P08173)", "sequence (P08173 whole entry)": "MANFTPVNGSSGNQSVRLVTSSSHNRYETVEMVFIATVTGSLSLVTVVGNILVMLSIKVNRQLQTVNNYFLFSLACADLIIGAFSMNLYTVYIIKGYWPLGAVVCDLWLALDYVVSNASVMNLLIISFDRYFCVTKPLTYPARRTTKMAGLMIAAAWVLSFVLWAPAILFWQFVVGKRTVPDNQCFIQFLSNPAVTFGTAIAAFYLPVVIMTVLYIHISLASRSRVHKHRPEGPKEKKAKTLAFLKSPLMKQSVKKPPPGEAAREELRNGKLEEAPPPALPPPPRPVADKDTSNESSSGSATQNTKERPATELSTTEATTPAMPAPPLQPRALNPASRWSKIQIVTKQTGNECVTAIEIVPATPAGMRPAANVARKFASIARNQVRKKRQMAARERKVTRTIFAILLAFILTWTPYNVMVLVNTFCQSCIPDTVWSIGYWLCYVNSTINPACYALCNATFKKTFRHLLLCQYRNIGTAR", "assay": "Binding affinity to human muscarinic M4 receptor at 10 uM by radioligand displacement assay relative to control"}, "[6]": {"target": "Melatonin receptor type 1A (Homo sapiens) (UniProt P48039)", "sequence (P48039 whole entry)": "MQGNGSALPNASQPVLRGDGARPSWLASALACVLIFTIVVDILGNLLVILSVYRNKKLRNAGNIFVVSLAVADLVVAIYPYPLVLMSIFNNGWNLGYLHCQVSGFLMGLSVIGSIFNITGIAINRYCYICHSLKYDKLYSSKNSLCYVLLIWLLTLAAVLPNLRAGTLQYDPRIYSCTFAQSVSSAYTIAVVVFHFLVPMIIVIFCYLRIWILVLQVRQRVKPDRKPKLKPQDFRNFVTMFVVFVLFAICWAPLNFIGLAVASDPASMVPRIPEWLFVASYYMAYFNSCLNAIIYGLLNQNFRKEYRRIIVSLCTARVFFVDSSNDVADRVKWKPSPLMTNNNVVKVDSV", "assay": "Binding affinity to human ML1A receptor at 10 uM by radioligand displacement assay relative to control"}, "[7]": {"target": "T1, Sigma non-opioid intracellular receptor 1 (Homo sapiens, UniProt Q99720)", "T1 sequence (Q99720 whole entry)": "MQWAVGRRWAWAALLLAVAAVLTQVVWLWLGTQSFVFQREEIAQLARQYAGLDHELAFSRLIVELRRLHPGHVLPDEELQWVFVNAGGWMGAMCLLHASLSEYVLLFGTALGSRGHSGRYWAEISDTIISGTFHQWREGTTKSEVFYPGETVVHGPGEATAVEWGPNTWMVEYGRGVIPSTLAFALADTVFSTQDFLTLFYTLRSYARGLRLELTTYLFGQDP", "assay": "Modulation of sigma 1 receptor (unknown origin) by radioligand displacement assay relative to control"}, "[8]": {"target": "5-hydroxytryptamine receptor 6 (Homo sapiens) (UniProt P50406)", "sequence (P50406 whole entry)": "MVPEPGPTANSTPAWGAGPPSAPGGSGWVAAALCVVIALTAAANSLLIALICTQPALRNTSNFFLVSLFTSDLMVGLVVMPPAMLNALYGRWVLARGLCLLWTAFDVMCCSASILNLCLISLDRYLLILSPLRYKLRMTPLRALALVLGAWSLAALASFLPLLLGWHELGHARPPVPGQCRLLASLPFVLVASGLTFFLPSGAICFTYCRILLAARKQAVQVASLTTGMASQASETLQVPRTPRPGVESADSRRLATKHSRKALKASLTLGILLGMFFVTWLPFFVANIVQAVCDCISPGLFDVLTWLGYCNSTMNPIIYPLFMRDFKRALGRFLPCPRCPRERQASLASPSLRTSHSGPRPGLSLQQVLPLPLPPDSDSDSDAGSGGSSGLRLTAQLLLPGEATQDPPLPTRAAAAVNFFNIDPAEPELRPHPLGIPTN", "assay": "Binding affinity to human 5-HT6 receptor at 10 uM by radioligand displacement assay relative to control"}, "[9]": {"test_system": "Mus musculus", "assay": "Antiamnesic activity in ICR mouse scopolamine-induced memory impairment model assessed as increase in retention latency at 10 mg/kg, ip administered 60 mins prior to scopolamine challenge measured after 40 mins by passive avoidance test relative to scopolamine-treated control", "format": "functional", "settings": "route intraperitoneal"}, "[10]": {"target": "voltage-gated potassium channel (Homo sapiens, UniProt O43525+O43526+O95259+P16389+P17658+P22001+P22459+P22460+P48547+P51787+P56696+Q03721+Q09470+Q12809+Q14003+Q14721+Q16322+Q6PIU1+Q8NCM2+Q8TAE7+Q8TDN1+Q8TDN2+Q92953+Q96KK3+Q96L42+Q96PR1+Q96RP8+Q9BQ31+Q9H252+Q9H3M0+Q9NR82+Q9NS40+Q9NSA2+Q9NZV8+Q9UIX4+Q9UJ96+Q9UK17+Q9ULD8+Q9ULS6+Q9UQ05)", "assay": "Binding affinity to voltage-gated potassium channel (unknown origin) at 10 uM by radioligand displacement assay relative to control", "format": "protein assay"}, "[11]": {"target": "Adrenergic receptor alpha-2 (Homo sapiens) (UniProt P08913+P18825+P18089)", "assay": "Binding affinity to human adrenergic alpha2 receptor at 10 uM by radioligand displacement assay relative to control"}, "[12]": {"species_on_record": "Homo sapiens", "assay": "Binding affinity to L-type calcium channel verapamil binding site (unknown origin) at 10 uM by radioligand displacement assay relative to control"}, "[13]": {"target": "Calcitonin gene-related peptide type 1 receptor (Homo sapiens) (UniProt Q16602)", "sequence (Q16602 whole entry)": "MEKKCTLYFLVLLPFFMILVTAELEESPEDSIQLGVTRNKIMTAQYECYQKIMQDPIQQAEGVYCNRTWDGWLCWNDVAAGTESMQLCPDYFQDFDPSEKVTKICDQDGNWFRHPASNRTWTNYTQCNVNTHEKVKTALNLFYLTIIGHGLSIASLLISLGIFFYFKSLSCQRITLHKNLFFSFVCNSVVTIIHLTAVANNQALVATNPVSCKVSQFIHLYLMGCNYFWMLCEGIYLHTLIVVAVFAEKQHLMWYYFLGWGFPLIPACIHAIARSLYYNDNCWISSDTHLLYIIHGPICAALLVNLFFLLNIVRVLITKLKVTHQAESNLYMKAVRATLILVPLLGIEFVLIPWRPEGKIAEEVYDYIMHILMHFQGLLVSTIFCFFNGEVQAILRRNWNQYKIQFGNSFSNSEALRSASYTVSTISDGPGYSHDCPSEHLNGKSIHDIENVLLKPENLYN", "assay": "Binding affinity to human CGRP receptor at 10 uM by radioligand displacement assay relative to control"}, "[14]": {"test_system": "Mus musculus", "assay": "Toxicity in ip dosed ICR mouse assessed as effect on motor performance measured within 30 secs by chimney test", "format": "organism-based", "settings": "in vivo, 0.5 min"}, "[15]": {"target": "Adrenergic receptor alpha-1 (Homo sapiens) (UniProt P35348+P25100+P35368)", "assay": "Binding affinity to adrenergic alpha1 receptor (unknown origin) at 10 uM by radioligand displacement assay relative to control"}, "[16]": {"target": "5-hydroxytryptamine receptor 7 (Homo sapiens) (UniProt P34969)", "assay": "Binding affinity to human 5-HT7 receptor at 10 uM by radioligand displacement assay relative to control"}, "[17]": {"target": "D(1B) dopamine receptor (Homo sapiens) (UniProt P21918)", "sequence (P21918 whole entry)": "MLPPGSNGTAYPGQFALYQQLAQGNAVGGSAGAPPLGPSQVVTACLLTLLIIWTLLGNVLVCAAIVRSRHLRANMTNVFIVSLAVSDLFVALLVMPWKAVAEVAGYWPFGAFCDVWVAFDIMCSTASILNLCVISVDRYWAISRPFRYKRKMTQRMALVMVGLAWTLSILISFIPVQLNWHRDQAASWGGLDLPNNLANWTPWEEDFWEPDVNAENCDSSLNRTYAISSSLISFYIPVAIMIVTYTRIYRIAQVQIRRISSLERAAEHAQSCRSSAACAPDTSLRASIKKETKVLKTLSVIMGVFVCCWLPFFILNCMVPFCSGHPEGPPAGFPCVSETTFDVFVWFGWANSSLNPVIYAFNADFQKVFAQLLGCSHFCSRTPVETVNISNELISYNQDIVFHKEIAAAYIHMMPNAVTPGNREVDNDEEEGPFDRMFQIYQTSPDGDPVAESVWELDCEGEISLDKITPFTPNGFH", "assay": "Binding affinity to human dopamine D5 receptor at 10 uM by radioligand displacement assay relative to control"}, "[18]": {"target": "D(3) dopamine receptor (Homo sapiens) (UniProt P35462)", "assay": "Binding affinity to human dopamine D3 receptor at 10 uM by radioligand displacement assay relative to control"}, "[19]": {"species_on_record": "Homo sapiens", "assay": "Binding affinity to P2X receptor (unknown origin) at 10 uM by radioligand displacement assay relative to control"}, "[20]": {"target": "Peroxisome proliferator-activated receptor gamma (Homo sapiens) (UniProt P37231)", "sequence (P37231 whole entry)": "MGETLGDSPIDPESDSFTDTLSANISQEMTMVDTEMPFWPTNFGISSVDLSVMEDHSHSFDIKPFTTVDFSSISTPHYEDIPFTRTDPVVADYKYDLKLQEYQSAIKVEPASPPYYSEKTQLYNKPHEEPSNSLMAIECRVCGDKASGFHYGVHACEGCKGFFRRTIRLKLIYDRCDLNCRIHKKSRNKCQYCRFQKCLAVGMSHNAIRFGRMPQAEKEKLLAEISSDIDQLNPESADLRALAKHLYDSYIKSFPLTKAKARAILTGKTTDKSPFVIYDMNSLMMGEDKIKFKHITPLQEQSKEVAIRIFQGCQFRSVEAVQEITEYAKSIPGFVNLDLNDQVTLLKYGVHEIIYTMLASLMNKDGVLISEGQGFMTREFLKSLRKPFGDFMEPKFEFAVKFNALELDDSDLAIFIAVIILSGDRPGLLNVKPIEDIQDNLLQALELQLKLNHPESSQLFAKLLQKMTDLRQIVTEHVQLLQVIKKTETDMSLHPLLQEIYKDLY", "assay": "Binding affinity to human PPARgamma receptor at 10 uM by radioligand displacement assay relative to control"}, "[21]": {"species_on_record": "Homo sapiens", "assay": "Binding affinity to GABA receptor (unknown origin) at 10 uM by radioligand displacement assay relative to control"}, "[22]": {"target": "5-hydroxytryptamine receptor 2A (Homo sapiens) (UniProt P28223)", "sequence (P28223 whole entry)": "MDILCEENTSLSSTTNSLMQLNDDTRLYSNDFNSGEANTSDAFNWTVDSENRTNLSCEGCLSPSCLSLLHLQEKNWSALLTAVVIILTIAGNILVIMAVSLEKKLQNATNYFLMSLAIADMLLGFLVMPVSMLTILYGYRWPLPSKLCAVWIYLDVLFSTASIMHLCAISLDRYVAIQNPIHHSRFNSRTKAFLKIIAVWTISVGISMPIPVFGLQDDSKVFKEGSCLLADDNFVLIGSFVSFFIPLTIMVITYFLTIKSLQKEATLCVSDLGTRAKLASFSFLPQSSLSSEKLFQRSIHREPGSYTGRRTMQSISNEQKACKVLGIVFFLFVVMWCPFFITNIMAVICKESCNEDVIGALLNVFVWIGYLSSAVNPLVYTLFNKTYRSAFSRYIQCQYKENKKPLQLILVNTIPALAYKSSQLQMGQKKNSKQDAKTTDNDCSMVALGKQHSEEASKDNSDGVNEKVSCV", "assay": "Binding affinity to human 5-HT2A receptor at 10 uM by radioligand displacement assay relative to control"}, "[23]": {"species_on_record": "Homo sapiens", "assay": "Binding affinity to human TNFalpha receptor at 10 uM by radioligand displacement assay relative to control"}, "[24]": {"target": "B2 bradykinin receptor (Homo sapiens) (UniProt P30411)", "assay": "Binding affinity to human bradykinin B2 receptor at 10 uM by radioligand displacement assay relative to control"}, "[25]": {"test_system": "Mus musculus", "assay": "Toxicity in ICR mouse assessed as effect on locomotor activity measured moved distance per 4 mins at 1 mg/kg, ip after 60 mins by open field test (reference value: 623 136 cm)", "format": "organism-based", "design": "dose 1 mg/kg, route intraperitoneal", "settings": "in vivo"}, "[26]": {"target": "Sodium-dependent serotonin transporter (Homo sapiens) (UniProt P31645)", "sequence (P31645 whole entry, looked up)": "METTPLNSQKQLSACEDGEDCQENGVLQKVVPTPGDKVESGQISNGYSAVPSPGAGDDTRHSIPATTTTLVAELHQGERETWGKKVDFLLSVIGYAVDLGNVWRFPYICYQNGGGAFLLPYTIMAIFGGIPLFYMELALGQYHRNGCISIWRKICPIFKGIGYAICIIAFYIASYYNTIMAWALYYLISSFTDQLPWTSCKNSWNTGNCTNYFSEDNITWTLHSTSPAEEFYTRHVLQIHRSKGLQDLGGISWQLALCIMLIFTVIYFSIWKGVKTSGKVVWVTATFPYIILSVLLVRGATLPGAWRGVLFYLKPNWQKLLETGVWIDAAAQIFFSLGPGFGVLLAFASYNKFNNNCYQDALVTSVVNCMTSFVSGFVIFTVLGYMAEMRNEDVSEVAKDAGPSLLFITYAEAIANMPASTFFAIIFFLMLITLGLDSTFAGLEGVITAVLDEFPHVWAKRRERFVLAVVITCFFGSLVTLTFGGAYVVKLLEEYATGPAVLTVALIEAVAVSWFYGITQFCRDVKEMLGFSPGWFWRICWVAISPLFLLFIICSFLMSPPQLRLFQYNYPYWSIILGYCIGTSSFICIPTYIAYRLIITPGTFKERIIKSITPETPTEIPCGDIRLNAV", "assay": "Binding affinity to human serotonin 5-HT transporter at 10 uM by radioligand displacement assay relative to control"}, "[27]": {"target": "Muscarinic acetylcholine receptor M1 (Homo sapiens) (UniProt P11229)", "sequence (P11229 whole entry)": "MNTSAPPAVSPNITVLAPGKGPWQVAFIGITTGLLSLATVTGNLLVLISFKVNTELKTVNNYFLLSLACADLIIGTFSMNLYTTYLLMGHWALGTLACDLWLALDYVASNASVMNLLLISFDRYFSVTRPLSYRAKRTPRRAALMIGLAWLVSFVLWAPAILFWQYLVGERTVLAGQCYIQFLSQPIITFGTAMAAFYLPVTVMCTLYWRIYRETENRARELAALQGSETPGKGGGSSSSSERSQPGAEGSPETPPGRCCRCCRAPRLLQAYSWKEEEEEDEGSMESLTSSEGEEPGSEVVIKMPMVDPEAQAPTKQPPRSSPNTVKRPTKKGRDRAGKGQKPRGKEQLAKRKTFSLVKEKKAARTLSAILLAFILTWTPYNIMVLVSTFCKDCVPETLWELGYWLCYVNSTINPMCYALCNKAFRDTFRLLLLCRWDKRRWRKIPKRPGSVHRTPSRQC", "assay": "Binding affinity to human muscarinic M1 receptor at 10 uM by radioligand displacement assay relative to control"}, "[28]": {"target": "Endothelin receptor type B (Homo sapiens) (UniProt P24530)", "assay": "Binding affinity to human ETB receptor at 10 uM by radioligand displacement assay relative to control"}, "[29]": {"target": "Type-2 angiotensin II receptor (Homo sapiens) (UniProt P50052)", "sequence (P50052 whole entry)": "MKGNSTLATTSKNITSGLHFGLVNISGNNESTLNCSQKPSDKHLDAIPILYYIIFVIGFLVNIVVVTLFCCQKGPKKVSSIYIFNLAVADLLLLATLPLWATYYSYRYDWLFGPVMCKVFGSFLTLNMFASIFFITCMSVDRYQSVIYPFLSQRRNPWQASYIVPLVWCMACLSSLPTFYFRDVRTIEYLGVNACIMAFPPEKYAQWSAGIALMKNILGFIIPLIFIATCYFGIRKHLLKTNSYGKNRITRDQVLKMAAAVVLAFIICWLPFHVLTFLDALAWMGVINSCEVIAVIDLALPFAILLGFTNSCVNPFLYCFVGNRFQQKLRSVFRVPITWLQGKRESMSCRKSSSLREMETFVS", "assay": "Binding affinity to human angiotensin AT2 receptor at 10 uM by radioligand displacement assay relative to control"}, "[30]": {"target": "T1, Sigma non-opioid intracellular receptor 1", "assay": "Binding affinity to sigma 1 receptor (unknown origin) at 10 uM by radioligand displacement assay"}, "[31]": {"target": "Vasopressin V1a receptor (Homo sapiens) (UniProt P37288)", "assay": "Binding affinity to human vasopressin V1a receptor at 10 uM by radioligand displacement assay relative to control"}, "[32]": {"species_on_record": "Homo sapiens", "assay": "Binding affinity to PCP receptor (unknown origin) at 10 uM by radioligand displacement assay relative to control"}, "[33]": {"target": "Cholecystokinin receptor type A (Homo sapiens) (UniProt P32238)", "assay": "Binding affinity to human CCK1 receptor at 10 uM by radioligand displacement assay relative to control"}, "[34]": {"target": "Platelet-derived growth factor receptor (Homo sapiens) (UniProt P09619+P16234)", "assay": "Binding affinity to PDGF receptor (unknown origin) at 10 uM by radioligand displacement assay relative to control", "format": "protein-complex assay"}}, "note": "Activity calls are given as the source filed them. The calls are words filed in the database; no cut-off is given here."}
{"compound": "C[C@H]1[C@@H](c2ccccc2)CC(=O)N1CC(N)=O", "values": [{"measurement": "Activity", "setting": "[1]", "result": 559, "unit": "cm"}, {"measurement": "inhibition", "setting": "[2]", "result": 2, "unit": "%"}, {"measurement": "inhibition", "setting": "[3]", "result": -5, "unit": "%"}, {"measurement": "Activity", "setting": "[4]", "result": 470, "unit": "cm"}, {"measurement": "inhibition", "setting": "[5]", "result": -3, "unit": "%"}, {"measurement": "inhibition", "setting": "[6]", "result": -6, "unit": "%"}, {"measurement": "Activity", "setting": "[7]", "result": "> 20", "unit": "%"}, {"measurement": "inhibition", "setting": "[8]", "result": -10, "unit": "%"}, {"measurement": "Activity", "setting": "[9]", "result": 209, "unit": "%"}, {"measurement": "inhibition at 10 µM", "setting": "[10]", "result": -2, "unit": "%"}, {"measurement": "inhibition", "setting": "[11]", "result": -2, "unit": "%"}, {"measurement": "inhibition", "setting": "[12]", "result": -1, "unit": "%"}, {"measurement": "inhibition", "setting": "[13]", "result": 1, "unit": "%"}, {"measurement": "ED50", "setting": "[14]", "result": 349, "unit": "mg/kg"}, {"measurement": "inhibition", "setting": "[15]", "result": -5, "unit": "%"}, {"measurement": "inhibition", "setting": "[16]", "result": -4, "unit": "%"}, {"measurement": "inhibition", "setting": "[17]", "result": -3, "unit": "%"}, {"measurement": "inhibition", "setting": "[18]", "result": 7, "unit": "%"}, {"measurement": "inhibition", "setting": "[19]", "result": 6, "unit": "%"}, {"measurement": "inhibition", "setting": "[20]", "result": -9, "unit": "%"}, {"measurement": "inhibition", "setting": "[21]", "result": 13, "unit": "%"}, {"measurement": "inhibition", "setting": "[22]", "result": 5, "unit": "%"}, {"measurement": "inhibition", "setting": "[23]", "result": -3, "unit": "%"}, {"measurement": "inhibition", "setting": "[24]", "result": 3, "unit": "%"}, {"measurement": "Activity", "setting": "[25]", "result": 871, "unit": "cm"}, {"measurement": "inhibition", "setting": "[26]", "result": 5, "unit": "%"}, {"measurement": "inhibition", "setting": "[27]", "result": -4, "unit": "%"}, {"measurement": "inhibition", "setting": "[28]", "result": 2, "unit": "%"}, {"measurement": "inhibition", "setting": "[29]", "result": -5, "unit": "%"}, {"measurement": "Activity", "setting": "[30]", "result": "inactive"}, {"measurement": "inhibition", "setting": "[31]", "result": 2, "unit": "%"}, {"measurement": "inhibition", "setting": "[32]", "result": 6, "unit": "%"}, {"measurement": "inhibition", "setting": "[33]", "result": 9, "unit": "%"}, {"measurement": "inhibition", "setting": "[34]", "result": -6, "unit": "%"}]}
